The experiment has as its target PD-L1 His protein / PD-1 Fc protein (Homo sapiens, UniProt Q9NZQ7). Put plainly: HTRF Assay (PD-1/PD-L1 interaction). Type of experiment: binding. As to conditions: PD-L1 His 6 nM, PD-1 Fc 6 nM. In a few lines: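 HTRF: PD-L1 His (6 nM final), compound (3-fold dilutions, 20 μM to 0.001 μM final) and PD-1 Fc (6 nM final) preincubated 15 min at room temperature. Anti-human IgG-XL665 and anti-6HIS Tb cryptate (mixed at 6.7 nM and 0.35 nM) then added for 1 h at room temperature before reading.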
On the technique in general: In TR-FRET formats the signal depends on donor and acceptor labels being close together.

pIC50: −log10 of the molar value.

Chain of PD-L1 His protein / PD-1 Fc protein (Q9NZQ7 19-238 limits assumed): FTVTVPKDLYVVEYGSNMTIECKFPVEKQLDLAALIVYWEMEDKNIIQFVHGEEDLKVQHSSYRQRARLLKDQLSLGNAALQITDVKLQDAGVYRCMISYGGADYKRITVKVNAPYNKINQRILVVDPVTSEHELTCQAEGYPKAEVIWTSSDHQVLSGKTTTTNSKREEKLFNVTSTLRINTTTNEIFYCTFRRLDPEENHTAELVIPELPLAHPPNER

`COc1nc(-c2cccc(-c3cccc(-c4ccn5c(=O)c(CN6CC7(C6)CN(C(C)=O)C7)cnc5c4)c3Cl)c2Cl)ccc1CNC[C@@H]1CCC(=O)N1` [Example 329, (S)-3-((6-Acetyl-2,6-diazaspiro[3.3]heptan-2-yl)methyl)-8-(2,2′-dichloro-3′-(6-methoxy-5-((((5-oxopyrrolidin-2-yl)methyl)amino)methyl)pyridin-2-yl)-[1,1′-biphenyl]-3-yl)-4H-pyrido[1,2-a]pyrimidin-4-one] had a negative logarithm of the IC50 (pIC50) of 10.00.
The figure for `COc1nc(-c2cccc(-c3cccc(-c4ccc(CN(C=O)C[C@@H]5CCC(=O)N5)c(OC)n4)c3Cl)c2Cl)ccc1CNC[C@@H]1CCC(=O)N1` [Example 330, N-((6-(2,2′-Dichloro-3′-(6-methoxy-5-(((((S)-5-oxopyrrolidin-2-yl)methyl)amino)methyl)pyridin-2-yl)-[1,1′-biphenyl]-3-yl)-2-methoxypyridin-3-yl)methyl)-N—(((S)-5-oxopyrrolidin-2-yl)methyl)formamide] is 9.10; for `COc1nc(-c2cccc(-c3cccc(-c4cc5c(=O)n(C)c(CNC[C@@H]6CCC(=O)N6)nn5c4)c3Cl)c2Cl)ccc1CNC[C@@H]1CCC(=O)N1` [Example 331, 6-(2,2′-Dichloro-3′-(6-methoxy-5-(((((S)-5-oxopyrrolidin-2-yl)methyl)amino)methyl)pyridin-2-yl)-[1,1′-biphenyl]-3-yl)-3-methyl-2-(((((S)-5-oxopyrrolidin-2-yl)methyl)amino)methyl)pyrrolo[2,1-f][1,2,4]triazin-4(3H)-one] it is 6.51.
The figure for `COc1nc(-c2cccc(-c3cccc(-c4cc5c(=O)n(C)c(CN[C@H]6C[C@](C)(O)C6)nn5c4)c3Cl)c2Cl)ccc1CNC[C@@H]1CCC(=O)N1` [Example 332, 6-(2,2′-Dichloro-3′-(6-methoxy-5-(((((S)-5-oxopyrrolidin-2-yl)methyl)amino)methyl)pyridin-2-yl)-[1,1′-biphenyl]-3-yl)-2-((((1r,3r)-3-hydroxy-3-methylcyclobutyl)amino)methyl)-3-methylpyrrolo[2,1-f][1,2,4]triazin-4(3H)-one] is 6.30; for `COc1nc(-c2cccc(-c3cccc(-c4cc5ncc(CNC[C@H](C)O)cc5cn4)c3Cl)c2Cl)ccc1CNC[C@@H]1CCC(=O)N1` [Example 333, (S)-5-((((6-(2,2′-Dichloro-3′-(3-((((S)-2-hydroxypropyl)amino)methyl)-1,6-naphthyridin-7-yl)-[1,1′-biphenyl]-3-yl)-2-methoxypyridin-3-yl)methyl)amino)methyl)pyrrolidin-2-one] it is 9.15; for `COc1nc(-c2cccc(-c3cccc(-c4cc5ncc(CNCCO)cc5cn4)c3Cl)c2Cl)ccc1CNC[C@@H]1CCC(=O)N1` [Example 334, (S)-5-((((6-(2,2′-Dichloro-3′-(3-(((2-hydroxyethyl)amino)methyl)-1,6-naphthyridin-7-yl)-[1,1′-biphenyl]-3-yl)-2-methoxypyridin-3-yl)methyl)amino)methyl)pyrrolidin-2-one] it is 10.00.
The figure for `COc1nc(-c2cccc(-c3cccc(-c4ccn5c(=O)c(CNC[C@@H]6CCC(=O)N6)cnc5c4)c3Cl)c2Cl)cc(Cl)c1CNC[C@@H]1CCC(=O)N1` [Example 335, 8-[2-Chloro-3-[2-chloro-3-[4-chloro-6-methoxy-5-[[[(2S)-5-oxopyrrolidin-2-yl]methylamino]methyl]-2-pyridyl]phenyl]phenyl]-3-[[[(2S)-5-oxopyrrolidin-2-yl]methylamino]methyl]pyrido[1,2-a]pyrimidin-4-one] is 8.68.
As for `COc1nc(-c2cccc(-c3cccc(-c4ccn5c(=O)c(CNC[C@@H](O)CC(=O)N(C)C)cnc5c4)c3Cl)c2Cl)cc(F)c1CNC[C@@H]1CCC(=O)N1` [Example 336, (3S)-4-[[8-[2-Chloro-3-[2-chloro-3-[4-fluoro-6-methoxy-5-[[[(2S)-5-oxopyrrolidin-2-yl]methylamino]methyl]-2-pyridyl]phenyl]phenyl]-4-oxo-pyrido[1,2-a]pyrimidin-3-yl]methylamino]-3-hydroxy-N,N-dimethyl-butanamide], the pIC50 is 10.00.
The figure for `COc1cc(Cl)c(CNC[C@H]2CCC(=O)N2)c(-c2cccc(-c3cccc(-c4ccn5c(=O)c(CNC[C@@H]6CCC(=O)N6)cnc5c4)c3Cl)c2Cl)n1` [Example 337, 8-[2-chloro-3-[2-chloro-3-[4-chloro-6-methoxy-3-[[[(2R)-5-oxopyrrolidin-2-yl]methylamino]methyl]-2-pyridyl]phenyl]phenyl]-3-[[[(2S)-5-oxopyrrolidin-2-yl]methylamino]methyl]pyrido[1,2-a]pyrimidin-4-one] is 7.33; for `COc1nc(-c2cccc(-c3cccc(-c4ccc5nc(CNC[C@@H]6CCC(=O)N6)cn5n4)c3Cl)c2Cl)ccc1CNC[C@@H]1CCC(=O)N1` [Example 338, (5S)-5-[[[6-[2-Chloro-3-[2-chloro-3-[2-[[[(2S)-5-oxopyrrolidin-2-yl]methylamino]methyl]imidazo[1,2-b]pyridazin-6-yl]phenyl]phenyl]-2-methoxy-3-pyridyl]methylamino]methyl]pyrrolidin-2-one] it is 9.52.
The figure for `COc1nc(-c2cccc(-c3cccc(-c4ccc5nc(CN(C)CCO)cn5n4)c3Cl)c2Cl)ccc1CN(C)CCO` [Example 339, 2-[[6-[2-Chloro-3-[2-chloro-3-[2-[[2-hydroxyethyl(methyl)amino]methyl]imidazo[1,2-b]pyridazin-6-yl]phenyl]phenyl]-2-methoxy-3-pyridyl]methyl-methyl-amino]etanol] is 7.59; for `COc1nc(-c2cccc(-c3cccc(-c4ccc5nc(CNC[C@H](C)O)cn5n4)c3Cl)c2Cl)ccc1CNC[C@H](C)O` [Example 340, (2S)-1-[[6-[2-Chloro-3-[2-chloro-3-[2-[[[(2S)-2-hydroxypropyl]amino]methyl]imidazo[1,2-b]pyridazin-6-yl]phenyl]phenyl]-2-methoxy-3-pyridyl]methylamino]propan-2-ol] it is 8.46; for `CNC(=O)C(C)(C)NCc1cc(=O)n2ccc(-c3cccc(-c4cccc(-c5ccc(CNC[C@@H]6CCC(=O)N6)c(OC)n5)c4Cl)c3Cl)cc2n1` [Example 341, (S)-2-(((8-(2,2′-Dichloro-3′-(6-methoxy-5-((((5-oxopyrrolidin-2-yl)methyl)amino)methyl)pyridin-2-yl)-[1,1′-biphenyl]-3-yl)-4-oxo-4H-pyrido[1,2-a]pyrimidin-2-yl)methyl)amino)-N,2-dimethylpropanamide] it is 10.00.
The figure for `COc1nc(-c2cccc(-c3cccc(-c4ccn5c(=O)cc(CN6C[C@@H](O)CC6=O)nc5c4)c3Cl)c2Cl)ccc1CNC[C@@H]1CCC(=O)N1` [Example 342, 8-(2,2′-Dichloro-3′-(6-methoxy-5-(((((S)-5-oxopyrrolidin-2-yl)methyl)amino)methyl)pyridin-2-yl)-[1,1′-biphenyl]-3-yl)-2-(((S)-4-hydroxy-2-oxopyrrolidin-1-yl)methyl)-4H-pyrido[1,2-a]pyrimidin-4-one] is 10.00.
Take `COC(=O)C1CN(Cc2cc(=O)n3ccc(-c4cccc(-c5cccc(-c6ccc(CNC[C@@H]7CCC(=O)N7)c(OC)n6)c5Cl)c4Cl)cc3n2)C1` [Example 343, (S)-Methyl 1-((8-(2,2′-dichloro-3′-(6-methoxy-5-((((5-oxopyrrolidin-2-yl)methyl)amino)methyl)pyridin-2-yl)-[1,1′-biphenyl]-3-yl)-4-oxo-4H-pyrido[1,2-a]pyrimidin-2-yl)methyl) azetidine-3-carboxylate]: the pIC50 was 10.00.
The figure for `COc1nc(-c2cccc(-c3cccc(-c4ccc5c(c4)CCCNC5)c3Cl)c2Cl)ccc1CNC[C@@H]1CCC(=O)N1` [Example 344, (S)-5-((((6-(2,2′-Dichloro-3′-(2,3,4,5-tetrahydro-1H-benzo[c]azepin-7-yl)-[1,1′-biphenyl]-3-yl)-2-methoxypyridin-3-yl)methyl)amino)methyl)pyrrolidin-2-one] is 6.24.
The figure for `COc1nc(-c2cccc(-c3cccc(-c4ccn5c(=O)c(CNCC(C)(C)OC)cnc5c4)c3Cl)c2Cl)ccc1CNC[C@@H]1CCC(=O)N1` [Example 345, (S)-8-(2,2′-Dichloro-3′-(6-methoxy-5-((((5-oxopyrrolidin-2-yl)methyl)amino)methyl)pyridin-2-yl)-[1,1′-biphenyl]-3-yl)-3-(((2-methoxy-2-methylpropyl)amino)methyl)-4H-pyrido[1,2-a]pyrimidin-4-one] is 7.38.
The figure for `COc1nc(-c2cccc(-c3cccc(-c4ccn5c(=O)c(CN6CC7(CC(O)C7)C6)cnc5c4)c3Cl)c2Cl)ccc1CNC[C@@H]1CCC(=O)N1` [Example 346, (S)-8-(2,2′-Dichloro-3′-(6-methoxy-5-((((5-oxopyrrolidin-2-yl)methyl)amino)methyl)pyridin-2-yl)-[1,1′-biphenyl]-3-yl)-3-((6-hydroxy-2-azaspiro[3.3]heptan-2-yl)methyl)-4H-pyrido[1,2-a]pyrimidin-4-one] is 5.89.
Regarding `COc1nc(-c2cccc(-c3cccc(-c4ccn5c(=O)c(CN6C[C@@H](O)[C@H](O)C6)cnc5c4)c3Cl)c2Cl)ccc1CNC[C@@H]1CCC(=O)N1` [Example 347, 8-(2,2′-Dichloro-3′-(6-methoxy-5-(((((S)-5-oxopyrrolidin-2-yl)methyl)amino)methyl)pyridin-2-yl)-[1,1′-biphenyl]-3-yl)-3-(((3R,4R)-3,4-dihydroxypyrrolidin-1-yl)methyl)-4H-pyrido[1,2-a]pyrimidin-4-one], the negative-log IC50 (pIC50) is 6.28.
The figure for `COc1nc(-c2cccc(-c3cccc(-c4ccn5c(=O)c(CN[C@H]6C[C@](C)(O)C6)c(OC)nc5c4)c3Cl)c2Cl)ccc1CNC[C@@H]1CCC(=O)N1` [Example 348, 8-(2,2′-Dichloro-3′-(6-methoxy-5-(((((S)-5-oxopyrrolidin-2-yl)methyl)amino)methyl)pyridin-2-yl)-[1,1′-biphenyl]-3-yl)-3-((((1r,3r)-3-hydroxy-3-methylcyclobutyl)amino)methyl)-2-methoxy-4H-pyrido[1,2-a]pyrimidin-4-one] is 8.66.

For orientation: pIC50 means −log10 of the IC50, conventionally taken in molar units. Read a low pIC50 as a high IC50.

The values are drawn from patent US20230143612A1 (Arbutus Biopharma Corporation, priority 2020, published 2023).
